# Test: Kinetic inertness: transmetalation with excess Zn2+
# Format: physicochemical
# Settings: 25 equivalents of Zn2+, 37 °C, pH 6.0 MES buffer
substance,measurement,value
Mn-PyC3A,pseudo-first-order rate constant of transmetalation,5.5 ± 0.4 ×10^−4 s^−1

# — article PMC11022681 (Journal of the American Chemical Society, 2023)
